# From patent publication US20100143477A1, “Methods and Compositions for Stimulating the Proliferation or Differentiation of Stem Cells with Substance Por an Analog Thereof” (Immuneregen Biosciences, Inc., priority 2007, published 2010)
# Columns and labels:
# [1] = system: human-derived hematopoietic cell populations; test: CFC assay, multi-donor study, all seven cell populations (Example 4); assay type: cell-based; conditions: highest doses (up to 1 nM); three donors
# Experimental: Compound was dissolved in 1 ml of Iscove's Modified Dulbecco's Medium (IMDM) and a serial dose response was prepared in single log doses so that the final dose in culture ranged from 1 nanoMolar (nM) to 1×10^−16 M. All working dilutions were performed in IMDM. Cell cultures from each donor were started at different times and a fresh solution of Homspera® was prepared for each individual experiment.
# Starting with human bone marrow aspirate, the mononuclear cell (MNC) fraction from each aspirate was separated from whole bone marrow using Ficoll-Paque density gradient centrifugation.
# The colony-forming cell (CFC) assay was performed using optimal growth factor/cytokine concentrations. The reagents and conditions were similar to those used in Example 3, except that no ATP measurements were performed. The MNC fraction from each bone marrow donor was dissolved in IMDM and cultured at a concentration of 5,000 cells/well in a Culture Master Mix (HemoGenix, Inc., Colorado Springs, Colo.). […]
# The mean, standard deviation and percent coefficient of variation was calculated for all groups, transposed and plotted as a function of donor. The percent from control values were calculated and also plotted as a function of donor. […]
# [2] = system: human bone marrow-derived hematopoietic cell populations; test: CFC and iATP assays, all 7 cell populations (Example 3); assay type: cell-based; conditions: most of populations; 14 days; up to 1 nM
# Experimental: The compound was dissolved in 1 ml of Iscove's Modified Dulbecco's Medium (IMDM) and a serial dose response prepared in single log doses so that the final dose in culture ranged from 1 nM to 1×10^−16 M. All working dilutions were performed in IMDM.
# Starting with human bone marrow aspirate, the mononuclear cell (MNC) fraction was separated from the whole bone marrow using Ficoll-Paque density gradient centrifugation. […] The cell concentration was adjusted so that the final cell concentration in culture was 10,000 cells/well.
# Human bone marrow MNC was dissolved in IMDM and cultured at a concentration of 10,000 cell/well in a CAMEO™-96 Master Mix (HemoGenix, Inc., Colorado Springs, Colo.). […]
# Prior to processing all 96-well plates, the total colony counts/well were manually enumerated by microscopy. The mean, standard deviation and percent coefficient of variation was calculated for all groups, transposed and plotted. The intracellular ATP (iATP) concentration was measured after manual enumeration.
# The output of the luminometer is non-standardized Relative Luminescence Units (RLU). […] This allowed the RLU values to be automatically calculated into standardized ATP (μM) units. For both the RLU and ATP values derived from each well, the luminometer software calculated the mean, standard deviation and percent coefficient of variation.
# [3] = system: CFU-E (human bone marrow mononuclear cells); test: Colony forming unit (CFU) assay (Example 6); assay type: cell-based; conditions: approximately 14 days; FIG. 2
# Description: (§1) As stem cells differentiate in response to growth factors, they form a colony of cells with distinct morphologies that can be visualized using a microscope. This study examined the formation of three different progenitor cell populations, erythrocytes, platelets and granulocytes/macrophages.
# (§2) Bone marrow aspirates were obtained from three healthy donors between 18 and 35 years of age following appropriate guidelines and protocols. Bone marrow mononuclear cells were isolated using a Ficoll-Hypaque density gradient, separating red blood cells from the others. Cells from each donor were processed independently and used for setting up individual experiments to assess the effects, if any, of donor variability.
# (§3) Cells (1×10^5) were plated in duplicate onto 35 mm tissue culture plates for each condition tested and set up as described in Rameshwar et al. 1993, Blood. 81:2, 391-398. Erythroid and granulocyte/macrophage cultures were plated using methylcellulose and megakaryocyte cultures (platelet precursors) used a collagen-based support (StemCell Technologies, Vancouver, Canada, catalogue #04973). […] CP 99,994 (Pfizer) was used as a neurokinin-1 receptor antagonist and SR 48968 (Sanofi) was used as a neurokinin-2 receptor antagonist. […]
# [4] = system: BFU-E (human bone marrow mononuclear cells); test: Colony forming unit (CFU) assay (Example 6); assay type: cell-based; conditions: approximately 14 days; FIG. 1
# Description: as §1, §2, §3
# [5] = system: CFU-Mk, platelet precursors (human bone marrow mononuclear cells); test: Colony forming unit (CFU) assay (Example 6); assay type: cell-based; conditions: for effect of antagonist on substance P enhanced platelet colony formation: in the presence of substance P
# Description: as §1, §2
# Cells (1×10^5) were plated in duplicate onto 35 mm tissue culture plates for each condition tested and set up as described in Rameshwar et al. 1993, Blood. 81:2, 391-398. Erythroid and granulocyte/macrophage cultures were plated using methylcellulose and megakaryocyte cultures (platelet precursors) used a collagen-based support (StemCell Technologies, Vancouver, Canada, catalogue #04973). […] CP 99,994 (Pfizer) was used as a neurokinin-1 receptor antagonist and SR 48968 (Sanofi) was used as a neurokinin-2 receptor antagonist.
# Cultures were set up with limited cytokines and growth factors which would promote differentiation of one progenitor per plate.
# Each compound was dissolved in endotoxin-free water to a final concentration of 0.1 mM. After reconstitution, the solutions were aliquoted into siliconized microcentrifuge tubes and exposed to nitrogen gas, eliminating oxygen in the head space of the enclosure. All aliquots were stored at −20° C. until use and used within one month of reconstitution. See, Rameshwar, et al. 1997, J. Immunol.
# Cultures were incubated at 37° C. with 5% CO2 for approximately 14 days, after which colonies were manually enumerated using a microscope. […]
# [6] = system: neurokinin-1 (NK1) receptor; NK2 and NK3 receptors; conditions: Tousignant et al. 1990; cited from earlier work
compound,measurement,setting,value
CC(C)C[C@H](NC(=O)CN(C)C(=O)[C@H](Cc1ccccc1)NC(=O)[C@H](Cc1ccccc1)NC(=O)[C@H](CCC(N)=O)NC(=O)[C@H](CCC(N)=O)NC(=O)[C@@H]1CCCN1C(=O)[C@H](CCCCN)NC(=O)[C@@H]1CCCN1C(=O)[C@@H](N)CCCNC(=N)N)C(=O)N[C@@H](CCS(C)(=O)=O)C(N)=O [Homspera®],toxicity,[1],no apparent toxicity
same,cytotoxicity,[2],apparent absence of distinct cytotoxicity
RPKPQQFFGLM [substance P],"CFU-E colony formation, enhancement from control values",[3],about 70%
same,"BFU-E colony formation, increase from control values",[4],~60%
same,"effective concentration, platelet precursors (CFU-Mk)",[5],10^−8 M
same,neurokinin receptor specificity,[6],can also activate the neurokinin-2 (NK2) and neurokinin-3 (NK3) receptors
"COc1ccccc1CN[C@H]1CCCN[C@H]1c1ccccc1 [CP-99,994]",effect of antagonist on substance P enhanced platelet colony formation,[5],blocks the stimulatory activity of substance P
CC(=O)NC1(c2ccccc2)CCN(CC[C@H](CN(C)C(=O)c2ccccc2)c2ccc(Cl)c(Cl)c2)CC1 [SR48968],effect of antagonist on substance P enhanced platelet colony formation,[5],no effect on substance P activity
